Activity calls are given as the source filed them. The calls are words filed in the database; no cut-off is given here.
What was measured:
[1] = molecular target: T1, Nuclear receptor subfamily 4immunitygroup A member 1 (Homo sapiens, UniProt P22736); experiment: Modulation of human Nur77 LBD transiently transfected in HEK293T cells at 100 to 200 uM incubated for 16 hrs by Gal4-hybrid reporter gene based Dual-glo luciferase assay; type: cell-based; conditions: dose 100-200 µM
[2] = molecular target: T2, Nuclear receptor subfamily 4 group A member 2 (Homo sapiens, UniProt P43354); experiment: Agonist activity at human Nurr1 LBD transiently transfected in HEK293T cells incubated for 16 hrs by Gal4-hybrid reporter gene based Dual-glo luciferase assay; type: cell-based
[3] = molecular target: T2, Nuclear receptor subfamily 4 group A member 2; experiment: Binding affinity to recombinant N-terminal 6His-tagged Nurr1 LBD (362 to 598 residues) (unknown origin) expressed in Escherichia coli BL21(DE3)-R3-pRARE2 cells assessed as thermal stability by measuring change in melting temperature at 100 uM by SYPRO orange dye based differential scanning fluorimetry analysis
[4] = molecular target: T1, Nuclear receptor subfamily 4immunitygroup A member 1; experiment: Inverse agonist activity at human Nur77 LBD transiently transfected in HEK293T cells incubated for 16 hrs by Gal4-hybrid reporter gene based Dual-glo luciferase assay; type: cell-based
[5] = molecular target: T2, Nuclear receptor subfamily 4 group A member 2; experiment: Inverse agonist activity at human Nurr1 LBD transiently transfected in HEK293T cells incubated for 16 hrs by Gal4-hybrid reporter gene based Dual-glo luciferase assay; type: cell-based
[6] = molecular target: T3, Nuclear receptor subfamily 4 group A member 3 (Homo sapiens, UniProt Q92570); experiment: Inverse agonist activity at human NOR-1 LBD transiently transfected in HEK293T cells incubated for 16 hrs by Gal4-hybrid reporter gene based Dual-glo luciferase assay; type: cell-based
[7] = molecular target: T1, Nuclear receptor subfamily 4immunitygroup A member 1; experiment: Agonist activity at human Nur77 LBD transiently transfected in HEK293T cells incubated for 16 hrs by Gal4-hybrid reporter gene based Dual-glo luciferase assay; type: cell-based
[8] = molecular target: T3, Nuclear receptor subfamily 4 group A member 3; experiment: Agonist activity at human NOR-1 LBD transiently transfected in HEK293T cells incubated for 16 hrs by Gal4-hybrid reporter gene based Dual-glo luciferase assay; type: cell-based
[9] = molecular target: T3, Nuclear receptor subfamily 4 group A member 3; experiment: Modulation of human NOR-1 LBD transiently transfected in HEK293T cells at 100 to 200 uM incubated for 16 hrs by Gal4-hybrid reporter gene based Dual-glo luciferase assay; type: cell-based; conditions: dose 100-200 µM
[10] = molecular target: T1, Nuclear receptor subfamily 4immunitygroup A member 1; experiment: Agonist activity at human Nur77 LBD transiently transfected in HEK293T cells assessed as maximal activation incubated for 16 hrs by Gal4-hybrid reporter gene based Dual-glo luciferase assay relative to control; type: cell-based; conditions: filed as agonist
[11] = molecular target: T3, Nuclear receptor subfamily 4 group A member 3; experiment: Agonist activity at human NOR-1 LBD transiently transfected in HEK293T cells assessed as maximal activation incubated for 16 hrs by Gal4-hybrid reporter gene based Dual-glo luciferase assay relative to control; type: cell-based; conditions: filed as agonist

T3 sequence (Q92570 whole entry, the tested form may be a part): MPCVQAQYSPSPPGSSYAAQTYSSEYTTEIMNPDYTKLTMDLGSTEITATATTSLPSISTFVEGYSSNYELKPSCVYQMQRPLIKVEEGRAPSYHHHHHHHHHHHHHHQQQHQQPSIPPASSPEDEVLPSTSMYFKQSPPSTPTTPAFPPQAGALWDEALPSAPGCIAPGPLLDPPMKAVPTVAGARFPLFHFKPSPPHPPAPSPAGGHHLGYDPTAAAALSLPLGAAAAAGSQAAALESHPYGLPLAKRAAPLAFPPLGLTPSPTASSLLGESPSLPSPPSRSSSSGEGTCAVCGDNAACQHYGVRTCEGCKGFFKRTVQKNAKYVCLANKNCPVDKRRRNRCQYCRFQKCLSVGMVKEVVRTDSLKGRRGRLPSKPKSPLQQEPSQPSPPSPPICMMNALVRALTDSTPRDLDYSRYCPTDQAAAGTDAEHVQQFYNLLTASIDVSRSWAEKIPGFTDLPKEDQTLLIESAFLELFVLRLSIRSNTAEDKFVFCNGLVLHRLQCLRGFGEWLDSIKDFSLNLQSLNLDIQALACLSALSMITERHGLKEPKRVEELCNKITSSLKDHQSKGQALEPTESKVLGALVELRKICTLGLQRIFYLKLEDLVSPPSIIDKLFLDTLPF
T2 sequence (P43354 whole entry, the tested form may be a part): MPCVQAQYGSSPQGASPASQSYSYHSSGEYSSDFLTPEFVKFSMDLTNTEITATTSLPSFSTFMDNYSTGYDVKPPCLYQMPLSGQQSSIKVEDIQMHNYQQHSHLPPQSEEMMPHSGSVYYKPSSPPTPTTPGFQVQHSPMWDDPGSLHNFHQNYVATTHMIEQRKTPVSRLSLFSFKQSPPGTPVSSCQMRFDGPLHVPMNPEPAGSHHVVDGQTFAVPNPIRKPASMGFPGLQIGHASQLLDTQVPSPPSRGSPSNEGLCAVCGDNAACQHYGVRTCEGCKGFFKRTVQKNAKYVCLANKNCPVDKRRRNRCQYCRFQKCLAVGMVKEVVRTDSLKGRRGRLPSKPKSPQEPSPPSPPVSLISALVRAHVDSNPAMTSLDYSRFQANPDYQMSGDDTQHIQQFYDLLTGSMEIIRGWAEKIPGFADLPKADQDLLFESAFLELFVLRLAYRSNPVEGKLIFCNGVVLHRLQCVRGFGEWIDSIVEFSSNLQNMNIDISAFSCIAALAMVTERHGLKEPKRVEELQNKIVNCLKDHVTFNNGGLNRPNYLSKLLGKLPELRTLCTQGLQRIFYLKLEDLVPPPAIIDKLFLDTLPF
T1 sequence (P22736 whole entry, the tested form may be a part): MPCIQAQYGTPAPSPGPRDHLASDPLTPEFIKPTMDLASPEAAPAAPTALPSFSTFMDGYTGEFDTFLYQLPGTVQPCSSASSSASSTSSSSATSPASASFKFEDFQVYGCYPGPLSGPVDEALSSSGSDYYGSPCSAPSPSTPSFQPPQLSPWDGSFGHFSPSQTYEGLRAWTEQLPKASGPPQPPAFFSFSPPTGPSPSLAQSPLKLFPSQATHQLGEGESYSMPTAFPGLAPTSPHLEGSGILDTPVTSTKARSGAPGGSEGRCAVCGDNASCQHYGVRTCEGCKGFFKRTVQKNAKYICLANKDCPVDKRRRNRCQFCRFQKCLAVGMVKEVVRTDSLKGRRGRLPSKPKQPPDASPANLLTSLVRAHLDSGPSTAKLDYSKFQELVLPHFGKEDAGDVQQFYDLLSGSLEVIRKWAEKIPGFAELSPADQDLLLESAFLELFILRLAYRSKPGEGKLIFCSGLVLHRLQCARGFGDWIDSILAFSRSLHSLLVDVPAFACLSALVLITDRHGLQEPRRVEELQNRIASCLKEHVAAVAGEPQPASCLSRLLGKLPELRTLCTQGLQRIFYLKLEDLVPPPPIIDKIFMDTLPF

COc1cc(C(=O)O)cc(OC)c1OC
Activity [1]: inactive

O=C(O)c1ccc(Oc2ccccc2)cc1
Activity [1]: inactive

O=C(O)c1cccc(OCc2ccc(F)cc2)c1
EC50 ([2]; read-out: EC50): 19 µM

COc1cccc(-c2ccc(NC(=O)C3=C(C(=O)O)CCC3)c(F)c2)c1
ΔTm [3]: -0.94 °C

CSc1nccn1-c1ccc(C(=O)O)cc1
IC50 [4]: 9 µM | IC50 [5]: 37 µM | IC50 [6]: > 100 µM

O=C(O)c1cccc(OCc2ccc(Cl)cc2Cl)c1
EC50 [7]: 0.04 µM | EC50 [8]: 0.15 µM

O=C(O)c1ccccc1CCc1ccccc1
IC50 [4]: > 100 µM | IC50 [6]: > 100 µM

O=C(O)c1ccc(OCc2ccc(F)cc2)cc1
EC50 ([2]; read-out: EC50): 12 µM

O=C(O)C(c1ccccc1)(c1ccccc1)c1ccccc1
IC50 [4]: > 100 µM | IC50 [6]: > 100 µM

CCc1c(C(=O)O)cnn1-c1ccccc1
EC50 [7]: > 100 µM | EC50 [8]: 73 µM

O=C(O)c1cccc(OCc2ccccc2)c1
EC50 ([2]; read-out: EC50): 8 µM

CCC(Oc1cc(Cl)cc(Cl)c1)C(=O)O (stereo unspecified)
Activity [1]: inactive

O=C(O)c1ccccc1C(=O)c1ccc(Cl)cc1
IC50 [4]: 99 µM | IC50 [5]: > 100 µM | IC50 [6]: 111 µM

O=Cc1ccc(C(=O)O)cc1
Activity [9]: inactive | Activity [1]: inactive

O=C(O)c1cccc(OCc2ccccc2Cl)c1
EC50 ([2]; read-out: EC50): 3 µM

O=C(O)/C=C/c1ccc(Cl)c(Cl)c1
Activity [9]: inactive

O=C(O)c1ccc(OCc2cccc(C(F)(F)F)c2)cc1
EC50 ([2]; read-out: EC50): 18 µM

CN(C)c1ccc(/N=N/c2ccccc2C(=O)O)cc1
Activity [9]: inactive

O=C(O)c1ccc(OCc2ccccc2)cc1
Emax [10]: 158% | EC50 ([2]; read-out: EC50): 9 µM | Emax [11]: 166% | EC50 [7]: 8 µM | EC50 [8]: 13 µM

C/C(=C\C(=O)O)c1ccc(C(F)(F)F)cc1
Emax [10]: 162% | EC50 ([2]; read-out: EC50): 76 µM | Emax [11]: 157% | EC50 [7]: 28 µM | EC50 [8]: 36 µM

Cn1nnc2c(C(=O)O)ncn2c1=O
Activity [1]: inactive

O=C(O)c1ccc(OCc2ccccc2Cl)cc1
EC50 ([2]; read-out: EC50): 0.05 µM

COc1ccccc1CC(=O)O
Activity [1]: inactive

O=C(O)CCC(=O)c1ccccc1
EC50 ([2]; read-out: EC50): 90 µM | EC50 [7]: > 100 µM | EC50 [8]: > 100 µM

O=C(O)c1cccc(OCc2cccc(F)c2)c1
EC50 ([2]; read-out: EC50): 3 µM

O=C(O)c1ccc(OCc2cccc(-c3ccccc3)c2)cc1
EC50 ([2]; hek293t): Not Determined(Insoluble)

O=C(O)CN(CCO)CCO
Activity [1]: inactive

O=C(O)CC(c1ccccc1)c1ccccc1
Activity [9]: inactive

N#Cc1c(F)c(F)cc(C(=O)O)c1F
IC50 [4]: > 100 µM | IC50 [6]: > 100 µM

O=C(O)c1ccc(OCc2ccc(Cl)cc2)cc1
EC50 ([2]; read-out: EC50): 6 µM

O=C(O)c1ccc(-c2cccc(F)c2)o1
Emax [10]: 158% | EC50 ([2]; read-out: EC50): 6 µM | Emax [11]: 148% | EC50 [7]: 9 µM | EC50 [8]: 6 µM

O=C(O)c1ccnc2ccccc12
Activity [1]: inactive

O=C(O)c1cccc2ccccc12 [NAPHTHOIC ACID]
Emax [10]: 183% | EC50 ([2]; read-out: EC50): 54 µM | Emax [11]: 136% | EC50 [7]: 48 µM | EC50 [8]: 56 µM

Source: ChEMBL document CHEMBL5390264, “Exploring Fatty Acid Mimetics as NR4A Ligands” (J Med Chem, 2023)
